Assay results as given in patent US5827837A, “Polyanion anti-inflammatory agents” (priority 1996, dated 1998).

Tests used:
[1] = Toxic effects after injection, applicant's studies; assay type: in vivo
L-selectin (L-COS) = test: LS 180 cell adhesion to COS cells transfected with full length L-selectin (L-COS); assay type: cell-based; details: 0.5 mM, 2 experiments
Procedure: (§1) The effect of inositols on selectin-dependent cell adhesion was assessed using several in vitro assay systems. In the first, a colon cancer cell line, LS 180, was chosen because it binds to all three selecting.
(§2) COS-1 cells were transfected as described (Seed, B., et al., Proc. Natl. Acad. Sci., U.S.A., 84:3365, 1987; Aruffo, A., Current Protocols In Molecular Biology, eds. supra, 1992) with pCDM7/pCDM8 expression vectors containing the full-length E-, P- and L-selectin cDNA. Transfected COS-1 cells were seeded on gelatin coated coverslips.

E-selectin (E-COS) [2] = test: PMN adhesion to E-selectin transfected COS cells (E-COS); assay type: cell-based, human; details: 0.5 mM
Procedure: as §2

neutrophils = details: cited from earlier work
[3] = mice and rats, high-dose (^18 600 μmol/kg), rate 60 μmol/kg/min or higher; cited from earlier work
hemoglobin = details: in vitro; cited from earlier work
[4] = system: PMN recovered in broncho-alveolar lavage fluid; test: Lung inflammation by intratracheal instillation of endotoxin, PMN in broncho-alveolar lavage fluid; assay type: in vivo; details: rat, i.v. at 2 and 4 hours, 40 μmol/kg total, at 6 hours, 2 experiments
Description: (§3) In the first model, mice were given intraperitoneal (i.p.) injections of 3% thioglycollate broth (FIG. 4, left panel) which results in an accumulation of PMN, the early phase of which is thought to depend in large part on L-(Lewinsohn, D. M., et al., J. Immunol., 138:4313, 1987; Watson, S. R., et al., Nature, 349:164, 1991), and P-selectin (Mulligan, M. S., et al., J. Clin. Invest., 90:1600, 1992). […] In a rat model of lung inflammation involving intratracheal instillation of endotoxin (Ulich, T. R., et al., Am. J. Pathol, 138:1485, 1991), InsP6 (i.v. injections at 2 and 4 hours, 40 μmol/kg total) reduced the number of PMN recovered in broncho-alveolar lavage fluid at 6 hours (59±8% inhibition, 2 experiments). The number of peripheral blood PMN was not modified by InsP6 treatment.

E-selectin (E-COS) [5] = test: LS 180 cell adhesion to COS cells transfected with full length E-selectin (E-COS); assay type: cell-based; details: 0.5 mM
Procedure: as §1, §2

P-selectin (P-COS) = test: LS 180 cell adhesion to COS cells transfected with full length P-selectin (P-COS); assay type: cell-based; details: 0.5 mM, 2 experiments
Procedure: as §1, §2

[6] = target: T1, E-selectin-lg fusion protein (Homo sapiens, UniProt P16581); test: LS 180 colon cancer cell adhesion to immobilized E-selectin-Ig; assay type: cell-based
T1 construct: Each selectin-lg contains the lectin domain, epidermal growth factor domain, and one (L-selectin-lg), two (P-selectin-lg) or six (E-selectin-lg) complement regulatory repeats; made in house
Procedure: Cell adhesion assays on immobilized selectin-lg were performed essentially as described (Nelson, R. M., et al., J. Clin. Invest., 91:1157, 1993; Nelson, R. M., et al., Symposia on Quant. Biol., 57:271, 1992). Briefly, Nunclon Terasaki Microwell plates were coated overnight with 5 μl/well of a 5 μg/ml solution of protein A (Chemicon, Temecula, Calif.) in 50 mM carbonate buffer, pH 9.5. Protein-A-coated plates were washed with Dulbecco's phosphate buffered saline (PBS), incubated for 1 hour with L-, P-, or E-selectin-lg fusion proteins in PBS (5-20 μg/ml), washed again, and blocked with PBS containing 1% human serum albumin (HSA). […] After washing to remove unbound cells, adherent cells were fixed with glutaraldehyde (2.5% in PBS) and counted. Symbols and error bars represent mean number of adherent cells/mm^2 ±s.e.m., counted in quadruplicate wells in a single experiment representative of three. No LS 180 cell adhesion was detected on plates coated with protein A alone, or on plates coated with protein A-captured CD8-lg fusion protein.
LS 180 cells (ATCC, Rockville, Md.) were added to cell culture wells containing protein A-captured selectin-lg fusion proteins and incubated for 30 min at 4° C. to allow adhesion. The plates were washed to remove unbound cells and adherent cells were counted microscopically. […]

peripheral blood PMN = test: Number of peripheral blood PMN; details: in vivo
Description: as §3

[7] = system: PMN within the peritoneal cavity; test: Zymosan-induced peritoneal inflammation, PMN accumulation; assay type: in vivo, mice (Balb/c); details: mice
Procedure: Mice (Balb/c males, 4-5 weeks old, 20-24 grams) were injected i.p. with 1 ml of 3% thioglycollate broth (lot #622462, Clinical Standard Laboratories, Inc., Rancho Dominguez, Calif.) left panel, or 0.5 mg of zymosan (Sigma) in 1 ml of sterile, pyrogen-free saline (Abbott Laboratories, North Chicago, Ill.), (FIG. 4, right panel). Control animals were injected i.p. with 1 ml of sterile pyrogen-free saline. After 40 and 80 min the animals received i.v. injections of 0.2 ml of sterile saline with or without InsP6 (total of 80 μmol/kg) or inositol (400 μmol/kg). Mice were sacrificed at 120 min and PMN within the peritoneal cavity were collected by lavage with 10 ml of ice-cold PBS containing 10 U/ml of heparin. After red blood cell lysis, the cells were counted in a hemocytometer (2 separate counts per sample, in triplicate). The percentage of PMN was assessed by counting cytospin preparations (two counts per slide, 300 cells per count) stained with Dif-Quick stain (Baxter, McGaw Park, Ill). Data are expressed as the mean ±s.d. of three separate experiments, with 5-6 animals per group in each experiment except for the group injected with saline i.p. that was constituted by 2 animal per experiment. […]

T1 sequence (P16581 with tags, fused parts or gaps limits assumed): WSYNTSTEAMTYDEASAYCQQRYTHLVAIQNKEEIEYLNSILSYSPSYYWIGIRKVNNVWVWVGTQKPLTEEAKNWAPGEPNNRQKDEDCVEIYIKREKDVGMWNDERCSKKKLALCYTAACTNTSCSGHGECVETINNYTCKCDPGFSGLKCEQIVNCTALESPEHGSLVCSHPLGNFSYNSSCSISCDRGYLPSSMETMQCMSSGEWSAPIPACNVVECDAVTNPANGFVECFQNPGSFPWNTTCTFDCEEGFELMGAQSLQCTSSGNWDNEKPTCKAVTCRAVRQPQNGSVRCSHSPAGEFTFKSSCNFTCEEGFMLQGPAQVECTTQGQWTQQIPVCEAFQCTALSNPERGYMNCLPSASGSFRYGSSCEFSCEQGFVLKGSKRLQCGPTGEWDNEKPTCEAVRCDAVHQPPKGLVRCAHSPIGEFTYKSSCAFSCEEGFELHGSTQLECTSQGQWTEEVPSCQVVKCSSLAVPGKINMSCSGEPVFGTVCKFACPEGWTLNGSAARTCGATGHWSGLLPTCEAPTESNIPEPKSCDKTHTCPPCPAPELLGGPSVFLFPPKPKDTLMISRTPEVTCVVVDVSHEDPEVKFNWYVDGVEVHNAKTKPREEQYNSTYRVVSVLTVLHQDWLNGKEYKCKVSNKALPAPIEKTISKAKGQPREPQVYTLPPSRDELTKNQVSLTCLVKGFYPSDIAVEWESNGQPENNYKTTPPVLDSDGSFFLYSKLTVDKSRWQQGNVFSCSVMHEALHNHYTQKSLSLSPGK

| SMILES | toxic effects at decreased infusion rate and lower doses ([1]; 40 μmol/kg, decreased rate of infusion) | duration of transient toxic effects ([1]; rapid i.v. (5-10 sec), >50 μmol/kg) [min] | toxic effects upon rapid i.v. injection ([1]; rapid i.v. (5-10 sec), concentrated solutions >50 μmol/kg) | harmful effect on repeated protocol ([1]; repeated multiple times in the same animal, 40 μmol/kg) | toxic effects, subcutaneous ([1]; s.c., doses up to 200 μmol/kg) | inhibition of LS 180 cell adhesion to L-COS (L-selectin (L-COS)) [%] | PMN adhesion to E-COS (E-selectin (E-COS) [2]) | effect on neutrophil responses to activating stimuli (neutrophils) | acute toxic effects, i.v. infusion [3] | allosteric regulation of mammalian hemoglobin (hemoglobin) | inhibition of PMN recovered in broncho-alveolar lavage fluid [4] [%] | inhibition of LS 180 cell adhesion to E-COS (E-selectin (E-COS) [5]) [%] | inhibition of LS 180 cell adhesion to P-COS (P-selectin (P-COS)) [%] | LS 180 adhesion to E-selectin-Ig [6] | number of peripheral blood PMN (peripheral blood PMN) | effect in zymosan-induced peritoneal inflammation ([7]; relative to thioglycollate model) | inhibition of PMN accumulation, zymosan model ([7]; 400 μmol/kg, 1 experiment) [%] |
| --- | --- | --- | --- | --- | --- | --- | --- | --- | --- | --- | --- | --- | --- | --- | --- | --- | --- |
| O=P(O)(O)O[C@H]1[C@H](OP(=O)(O)O)[C@@H](OP(=O)(O)O)[C@H](OP(=O)(O)O)[C@@H](OP(=O)(O)O)[C@H]1OP(=O)(O)O [InsP6, myo-inositol hexakisphosphate] | These effects were avoided | 1 to 3 | some transient (duration 1-3 min) toxic effects (unsteady gate, spasms) | without apparent harmful effect | no toxic effects were observed | 81±13 | not to E-COS | enhance their responses to activating stimuli | acute toxic effects | effective allosteric regulator of mammalian hemoglobin in vitro | 59±8 | < 5 | 95±5 | but not with E-selectin-lg | not modified | equally effective | – |
| O=S(=O)(O)O[C@H]1[C@H](OS(=O)(=O)O)[C@@H](OS(=O)(=O)O)[C@H](OS(=O)(=O)O)[C@@H](OS(=O)(=O)O)[C@H]1OS(=O)(=O)O [InsS6, myo-inositol hexakissulfate] | – | – | – | – | – | – | – | – | – | – | – | – | – | – | – | – | 31±11 |
